According to patent publication US12495798B2, “Nicotinamide compound and herbicidal composition comprising compound” (KOREA RESEARCH INSTITUTE OF CHEMICAL TECHNOLOGY, priority 2019, dated 2025):

Experiments:
Assay type in all cases: in vivo
[1] = test system: bindweed; test: Herbicidal activity test against upland field weeds (soil treatment test); parameters: key to Soil treatment herbicidal activity, Bindweed: 0 (no control); 100 (complete control); conditions: scale 0 (no control) to 100 (complete control)
Procedure, shortened: (§1)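 Pre-emergence test: seeds or rootstocks were sown in fertilized sandy loam, and the next day the soil surface was sprayed with compound at 50 or 75 g a.i./ha in 50% acetone/0.1% Tween-20. Plants were grown in a greenhouse (30±5 °C, 14/10 h light/dark), then visually scored 0–100 against untreated at 14 d (21 d if needed).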

[2] = test system: quack grass; test: Herbicidal activity test against upland field weeds (foliar treatment test); parameters: key to Foliar treatment herbicidal activity, quack grass: 0 (no control); 100 (complete control); conditions: scale 0-100
Procedure, shortened: (§2)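 Weeds were raised from seed or rootstocks in horticultural soil in a greenhouse (30±5° C., 14/10 h light/dark), then foliage was hand-sprayed with compound at 50 or 75 g a.i./ha in 50% acetone with 0.1% Tween-20. Control was scored visually 0–100 against untreated plants after 14 days, or 21 if needed.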

[3] = test system: fall panicum; test: as above; parameters: key to Foliar treatment herbicidal activity, Fall panicum: 0 (no control); 100 (complete control); conditions: scale 0-100; for pest or weed control at 50 g/ha / Foliar treatment herbicidal activity, Fall panicum: 50 g ai/ha
Procedure, shortened: as §2

[4] = test system: velvetleaf; test: Herbicidal activity test against upland field weeds (soil treatment test); parameters: key to Soil treatment herbicidal activity, velvet leaf: 0 (no control); 100 (complete control); conditions: scale 0 (no control) to 100 (complete control); for pest or weed control at 50 g/ha: Abutilon theophrasti, read-out: Soil treatment herbicidal activity, velvet leaf
Procedure, shortened: as §1

[5] = test system: crabgrass; test: Herbicidal activity test against upland field weeds (foliar treatment test); parameters: key to Foliar treatment herbicidal activity, Crabgrass: 0 (no control); 100 (complete control); conditions: scale 0-100
Procedure, shortened: as §2

[6] = test system: crabgrass; test: Herbicidal activity test against upland field weeds (soil treatment test); parameters: key to Soil treatment herbicidal activity, Crabgrass: 0 (no control); 100 (complete control); conditions: scale 0 (no control) to 100 (complete control)
Procedure, shortened: as §1

[7] = test system: fall panicum; test: as above; parameters: key to Soil treatment herbicidal activity, Fall panicum: 0 (no control); 100 (complete control); conditions: scale 0 (no control) to 100 (complete control); for Soil treatment herbicidal activity, Fall panicum: 50 g ai/ha
Procedure, shortened: as §1

[8] = test system: velvetleaf; test: Herbicidal activity test against upland field weeds (foliar treatment test); parameters: key to Foliar treatment herbicidal activity, velvet leaf: 0 (no control); 100 (complete control)
Procedure, shortened: as §2

[9] = test system: barnyard grass; test: as above; parameters: key to Foliar treatment herbicidal activity, barnyard grass: 0 (no control); 100 (complete control); conditions: scale 0-100
Procedure, shortened: as §2

[10] = test system: cocklebur; test: Herbicidal activity test against upland field weeds (soil treatment test); parameters: key to Soil treatment herbicidal activity, Cocklebur: 0 (no control); 100 (complete control); conditions: scale 0 (no control) to 100 (complete control); for Soil treatment herbicidal activity, Cocklebur: 50 g ai/ha
Procedure, shortened: as §1

[11] = test system: sorghum; test: as above; parameters: key to Soil treatment herbicidal activity, Sorghum: 0 (no control); 100 (complete control); conditions: scale 0 (no control) to 100 (complete control); for Soil treatment herbicidal activity, Sorghum: 50 g ai/ha
Procedure, shortened: as §1

[12] = test system: black nightshade; test: as above; parameters: key to Soil treatment herbicidal activity, black nightshade: 0 (no control); 100 (complete control); conditions: scale 0 (no control) to 100 (complete control); for pest or weed control at 50 g/ha: Solanum nigrum, 50 g ai/ha
Procedure, shortened: as §1

[13] = test system: quack grass; test: as above; parameters: key to Soil treatment herbicidal activity, quack grass: 0 (no control); 100 (complete control); conditions: scale 0 (no control) to 100 (complete control); for Soil treatment herbicidal activity, quack grass: 50 g ai/ha
Procedure, shortened: as §1

[14] = test system: indian jointvetch; test: as above; parameters: key to Soil treatment herbicidal activity, Indian jointvetch: 0 (no control); 100 (complete control); conditions: scale 0 (no control) to 100 (complete control)
Procedure, shortened: as §1

[15] = test system: sorghum; test: Herbicidal activity test against upland field weeds (foliar treatment test); parameters: key to Foliar treatment herbicidal activity, Sorghum: 0 (no control); 100 (complete control); conditions: scale 0-100; for plant injury at 50 g/ha / Foliar treatment herbicidal activity, Sorghum: 50 g ai/ha
Procedure, shortened: as §2

[16] = test system: bindweed; test: as above; parameters: key to Foliar treatment herbicidal activity, Bindweed: 0 (no control); 100 (complete control); conditions: scale 0-100; for pest or weed control at 50 g/ha / Foliar treatment herbicidal activity, Bindweed: 50 g ai/ha
Procedure, shortened: as §2

[17] = test system: cocklebur; test: as above; parameters: key to Foliar treatment herbicidal activity, Cocklebur: 0 (no control); 100 (complete control); conditions: scale 0-100
Procedure, shortened: as §2

[18] = test system: barnyard grass; test: Herbicidal activity test against upland field weeds (soil treatment test); parameters: key to Soil treatment herbicidal activity, barnyard grass: 0 (no control); 100 (complete control); conditions: scale 0 (no control) to 100 (complete control)
Procedure, shortened: as §1

[19] = test system: indian jointvetch; test: Herbicidal activity test against upland field weeds (foliar treatment test); parameters: key to Foliar treatment herbicidal activity, Indian jointvetch: 0 (no control); 100 (complete control); conditions: scale 0-100
Procedure, shortened: as §2

[20] = test system: black nightshade; test: as above; parameters: key to Foliar treatment herbicidal activity, black nightshade: 0 (no control); 100 (complete control); conditions: scale 0-100; for Foliar treatment herbicidal activity, black nightshade / pest or weed control at 50 g/ha: 50 g ai/ha
Procedure, shortened: as §2

[21] = Abutilon theophrasti, 50 g ai/ha, scale 0-100, read-out: Foliar treatment herbicidal activity, velvet leaf
[22] = Panicum dichotomiflorum, 75 g ai/ha
[23] = Xanthium strumarium, 75 g ai/ha

Cn1nnc(CSCc2nc(C(F)F)ccc2C(=O)N(C(=O)c2ccccc2)c2nnnn2C)n1 [Compound No. 2-112, N-benzoyl-6-(difluoromethyl)-N-(1-methyl-1H-tetrazol-5-yl)-2-((((2-methyl-2H-tetrazol-5-yl)methyl)thio)methyl)nicotinamide]
Soil treatment herbicidal activity, Bindweed ([1]; 50 g ai/ha): 0
Foliar treatment herbicidal activity, quack grass ([2]; 50 g ai/ha): 0
pest or weed control at 50 g/ha ([3]; Panicum dichotomiflorum): 70%
Soil treatment herbicidal activity, velvet leaf ([4]; 50 g ai/ha): 100
pest or weed control at 50 g/ha ([5]; Digitaria sanguinalis, 50 g ai/ha): 90%
Soil treatment herbicidal activity, Crabgrass ([6]; 50 g ai/ha): 0
Soil treatment herbicidal activity, Fall panicum [7]: 0
pest or weed control at 50 g/ha [8, 21]: 90%
Foliar treatment herbicidal activity, barnyard grass ([9]; 50 g ai/ha): 100
Soil treatment herbicidal activity, Cocklebur [10]: 0
Soil treatment herbicidal activity, Sorghum [11]: 0
pest or weed control at 50 g/ha [12]: 90%
Soil treatment herbicidal activity, quack grass [13]: 0
Soil treatment herbicidal activity, Indian jointvetch ([14]; 50 g ai/ha): 100
plant injury at 50 g/ha ([15]; Sorghum): 50%
pest or weed control at 50 g/ha [16]: 98%
pest or weed control at 50 g/ha ([17]; Xanthium strumarium, 50 g ai/ha): 98%
Soil treatment herbicidal activity, barnyard grass ([18]; 50 g ai/ha): 0
pest or weed control at 50 g/ha ([19]; 50 g ai/ha): 95%
Foliar treatment herbicidal activity, black nightshade [20]: 100

CN(CCc1nnn(C)n1)c1nc(C(F)(F)F)ccc1C(=O)Nc1nnnn1C [Compound No. 2-36, 2-(methyl(2-(2-methyl-2H-tetrazol-5-yl)ethyl)amino)-N-(1-methyl-1H-tetrazol-5-yl)-6-(trifluoromethyl)nicotinamide]
pest or weed control at 75 g/ha ([1]; 75 g ai/ha): 70%
Foliar treatment herbicidal activity, quack grass ([2]; 75 g ai/ha): 0
pest or weed control at 75 g/ha [3, 22]: 50%
Soil treatment herbicidal activity, velvet leaf ([4]; 75 g ai/ha): 100
pest or weed control at 75 g/ha ([5]; Digitaria sanguinalis, 75 g ai/ha): 60%
Soil treatment herbicidal activity, Crabgrass ([6]; 75 g ai/ha): 100
pest or weed control at 75 g/ha [7, 22]: 98%
pest or weed control at 75 g/ha ([8]; Abutilon theophrasti, 75 g ai/ha, scale 0-100, read-out: Foliar treatment herbicidal activity, velvet leaf): 50%
pest or weed control at 75 g/ha ([9]; Echinochloa crus-galli, 75 g ai/ha): 90%
pest or weed control at 75 g/ha [10, 23]: 90%
plant injury at 75 g/ha ([11]; Sorghum, 75 g ai/ha): 20%
Soil treatment herbicidal activity, black nightshade ([12]; 75 g ai/ha): 100
pest or weed control at 75 g/ha ([13]; 75 g ai/ha): 10%
Soil treatment herbicidal activity, Indian jointvetch ([14]; 75 g ai/ha): 100
plant injury at 75 g/ha ([15]; Sorghum, 75 g ai/ha): 20%
pest or weed control at 75 g/ha ([16]; 75 g ai/ha): 70%
pest or weed control at 75 g/ha [17, 23]: 70%
Soil treatment herbicidal activity, barnyard grass ([18]; 75 g ai/ha): 100
pest or weed control at 75 g/ha ([19]; 75 g ai/ha): 60%
pest or weed control at 75 g/ha ([20]; Solanum nigrum, 75 g ai/ha): 95%

Cn1nnc(C[S+]([O-])Cc2nc(C(F)(F)F)ccc2C(=O)Nc2nnnn2C)n1 (stereo not shown) [Compound No. 2-104, N-(1-methyl-1H-tetrazol-5-yl)-2-((((2-methyl-2H-tetrazol-5-yl)methyl)sulfinyl)methyl)-6-(trifluoromethyl)nicotinamide]
Soil treatment herbicidal activity, Bindweed ([1]; 50 g ai/ha): 0
pest or weed control at 50 g/ha ([2]; 50 g ai/ha): 30%
pest or weed control at 50 g/ha ([3]; Panicum dichotomiflorum): 98%
Soil treatment herbicidal activity, velvet leaf ([4]; 50 g ai/ha): 100
Foliar treatment herbicidal activity, Crabgrass ([5]; 50 g ai/ha): 100
Soil treatment herbicidal activity, Crabgrass ([6]; 50 g ai/ha): 0
Soil treatment herbicidal activity, Fall panicum [7]: 0
Foliar treatment herbicidal activity, velvet leaf ([8]; 50 g ai/ha, scale 0-100): 100
pest or weed control at 50 g/ha ([9]; Echinochloa crus-galli, 50 g ai/ha): 98%
Soil treatment herbicidal activity, Cocklebur [10]: 0
Soil treatment herbicidal activity, Sorghum [11]: 0
pest or weed control at 50 g/ha [12]: 98%
Soil treatment herbicidal activity, quack grass [13]: 0
Soil treatment herbicidal activity, Indian jointvetch ([14]; 50 g ai/ha): 0
plant injury at 50 g/ha ([15]; Sorghum): 80%
Foliar treatment herbicidal activity, Bindweed [16]: 100
Foliar treatment herbicidal activity, Cocklebur ([17]; 50 g ai/ha): 100
Soil treatment herbicidal activity, barnyard grass ([18]; 50 g ai/ha): 0
Foliar treatment herbicidal activity, Indian jointvetch ([19]; 50 g ai/ha): 100
Foliar treatment herbicidal activity, black nightshade [20]: 100

CCc1cc(C(=O)Nc2nnnn2C)c(OCc2nnnn2C)nc1C(F)(F)F [Compound No. 1-19, 5-ethyl-N-(1-methyl-1H-tetrazol-5-yl)-2-((1-methyl-1H-tetrazol-5-yl)methoxy)-6-(trifluoromethyl)nicotinamide]
Soil treatment herbicidal activity, Bindweed ([1]; 50 g ai/ha): 0
Foliar treatment herbicidal activity, quack grass ([2]; 50 g ai/ha): 0
Foliar treatment herbicidal activity, Fall panicum [3]: 0
pest or weed control at 50 g/ha ([4]; 50 g ai/ha): 20%
Foliar treatment herbicidal activity, Crabgrass ([5]; 50 g ai/ha): 0
Soil treatment herbicidal activity, Crabgrass ([6]; 50 g ai/ha): 0
Soil treatment herbicidal activity, Fall panicum [7]: 0
pest or weed control at 50 g/ha [8, 21]: 20%
Foliar treatment herbicidal activity, barnyard grass ([9]; 50 g ai/ha): 0
Soil treatment herbicidal activity, Cocklebur [10]: 0
Soil treatment herbicidal activity, Sorghum [11]: 0
pest or weed control at 50 g/ha [12]: 98%
Soil treatment herbicidal activity, quack grass [13]: 0
Soil treatment herbicidal activity, Indian jointvetch ([14]; 50 g ai/ha): 0
Foliar treatment herbicidal activity, Sorghum [15]: 0
Foliar treatment herbicidal activity, Bindweed [16]: 0
Foliar treatment herbicidal activity, Cocklebur ([17]; 50 g ai/ha): 0
Soil treatment herbicidal activity, barnyard grass ([18]; 50 g ai/ha): 0
Foliar treatment herbicidal activity, Indian jointvetch ([19]; 50 g ai/ha): 0
pest or weed control at 50 g/ha ([20]; Solanum nigrum): 90%

C=Cc1cc(C(=O)Nc2nnnn2C)c(OCc2nnnn2C)nc1C(F)(F)F [Compound No. 1-18, N-(1-methyl-1H-tetrazol-5-yl)-2-((1-methyl-1H-tetrazol-5-yl)methoxy)-6-(trifluoromethyl)-5-vinylnicotinamide]
pest or weed control at 50 g/ha ([1]; 50 g ai/ha): 20%
Foliar treatment herbicidal activity, quack grass ([2]; 50 g ai/ha): 0
Foliar treatment herbicidal activity, Fall panicum [3]: 0
pest or weed control at 50 g/ha ([4]; 50 g ai/ha): 20%
Foliar treatment herbicidal activity, Crabgrass ([5]; 50 g ai/ha): 0
Soil treatment herbicidal activity, Crabgrass ([6]; 50 g ai/ha): 0
Soil treatment herbicidal activity, Fall panicum [7]: 0
pest or weed control at 50 g/ha [8, 21]: 20%
Foliar treatment herbicidal activity, barnyard grass ([9]; 50 g ai/ha): 0
Soil treatment herbicidal activity, Cocklebur [10]: 0
Soil treatment herbicidal activity, Sorghum [11]: 0
pest or weed control at 50 g/ha [12]: 80%
Soil treatment herbicidal activity, quack grass [13]: 0
Soil treatment herbicidal activity, Indian jointvetch ([14]; 50 g ai/ha): 0
Foliar treatment herbicidal activity, Sorghum [15]: 0
pest or weed control at 50 g/ha [16]: 20%
Foliar treatment herbicidal activity, Cocklebur ([17]; 50 g ai/ha): 0
Soil treatment herbicidal activity, barnyard grass ([18]; 50 g ai/ha): 0
Foliar treatment herbicidal activity, Indian jointvetch ([19]; 50 g ai/ha): 0
pest or weed control at 50 g/ha ([20]; Solanum nigrum): 80%
